Four molecules from ChEMBL document CHEMBL3045083, “Insect growth regulators as potential insecticides to control olive fruit fly (Bactrocera oleae Rossi): insect toxicity bioassays and molecular docking approach” (2013) can be followed below.

Common to all, as to format: functional
The subject of assay [1] is Anastrepha suspensa. The experiment in a line: Insecticidal activity against Anastrepha suspensa assessed as reduction in egg viability administered through diet ingestion measured after 8 to 10 days.
For assay [2], the system named is Anastrepha suspensa. As to the kind of experiment: Insecticidal activity against Anastrepha suspensa assessed as insect mortality administered through diet ingestion measured after 12 to 14 days.
The test system of assay [3] is Bactrocera oleae. As to the kind of experiment: Insecticidal activity against Bactrocera oleae assessed as insect mortality at 180 mg Ai/L applied through residual contact on glass surfaces measured after 24 hr (reference value: 2.0 +/- 2.0%).
The subject of assay [4] is Bactrocera oleae. As to the kind of experiment: Insecticidal activity against Bactrocera oleae assessed as insect survival lifespan at 180 mg Ai/L applied through oral ingestion (reference value: 79.7 +/- 12.2 days).
The subject of assay [5] is Bactrocera oleae. The experiment in a line: Insecticidal activity against Bactrocera oleae assessed as insect mortality at 180 mg Ai/L applied through oral ingestion measured after 15 days (reference value: 2.5 +/- 2.5%). The note with it: 360 h.
The test system of assay [6] is Bactrocera oleae. As to the kind of experiment: Insecticidal activity against Bactrocera oleae assessed as insect mortality at 180 mg Ai/L applied through oral ingestion measured after 7 days (reference value: 2.5 +/- 2.5%). The note with it: 168 h.
For assay [7], the system named is Bactrocera oleae. As to the kind of experiment: Insecticidal activity against Bactrocera oleae assessed as insect mortality at 180 mg Ai/L applied through oral ingestion measured after 24 hr (reference value: 0%).
The subject of assay [8] is Bactrocera oleae. The experiment in a line: Insecticidal activity against Bactrocera oleae assessed as insect mortality at 180 mg Ai/L applied through residual contact on glass surfaces measured after 15 days (reference value: 45.8 +/- 16.3%). The note with it: 360 h.
Assay [9] deals with Bactrocera oleae. As to the kind of experiment: Insecticidal activity against Bactrocera oleae assessed as insect mortality at 180 mg Ai/L applied through residual contact on glass surfaces measured after 7 days (reference value: 4.0 +/- 4.0%). As to conditions: 168 h.
In assay [10] the test system is Bactrocera oleae. As to the kind of experiment: Insecticidal activity against Bactrocera oleae assessed as insect mortality at 96 mg Ai/L applied through residual contact on glass surfaces measured after 7 days (reference value: 4.0 +/- 4.0%). As to conditions: 168 h.
Assay [11] concerns Bactrocera oleae. As to the kind of experiment: Insecticidal activity against Bactrocera oleae assessed as insect mortality at 96 mg Ai/L applied through residual contact on glass surfaces measured after 24 hr (reference value: 2.0 +/- 2.0%).
For assay [12], the system named is Bactrocera oleae. As to the kind of experiment: Insecticidal activity against Bactrocera oleae assessed as insect survival lifespan at 96 mg Ai/L applied through oral ingestion (reference value: 79.7 +/- 12.2 days).
In assay [13] the test system is Bactrocera oleae. The experiment in a line: Insecticidal activity against Bactrocera oleae assessed as insect mortality at 96 mg Ai/L applied through oral ingestion measured after 15 days (reference value: 2.5 +/- 2.5%). As to conditions: 360 h.
The test system of assay [14] is Bactrocera oleae. The experiment in a line: Insecticidal activity against Bactrocera oleae assessed as insect mortality at 96 mg Ai/L applied through oral ingestion measured after 7 days (reference value: 2.5 +/- 2.5%). The note with it: 168 h.
The subject of assay [15] is Bactrocera oleae. The experiment in a line: Insecticidal activity against Bactrocera oleae assessed as insect mortality at 96 mg Ai/L applied through oral ingestion measured after 24 hr (reference value: 0%).
For assay [16], the system named is Bactrocera oleae. The experiment in a line: Insecticidal activity against Bactrocera oleae assessed as insect mortality at 96 mg Ai/L applied through residual contact on glass surfaces measured after 15 days (reference value: 45.8 +/- 16.3%). As to conditions: 360 h.
In assay [17] the test system is Bactrocera oleae. The experiment in a line: Insecticidal activity against Bactrocera oleae assessed as insect mortality after 24 hr.

In the case of `CC(C)(C)N(NC(=O)c1ccccc1)C(=O)c1ccccc1` [RH-5849], the Activity in assay [1] was 60%. In addition, in assay [2], the mortality is on record as greater than 75%. Besides, the mortality at 180 µg/mL is 0% in assay [3]; 98.2% in assay [5]; 31.8% in [6]; 0% in assay [7]; 100% in assay [8]; 86% in assay [9]. Besides, the Survival in [4] was 8.7 days.

With `COc1cccc(C(=O)NN(C(=O)c2cc(C)cc(C)c2)C(C)(C)C)c1C` [METHOXYFENOZIDE], the mortality at 96 µg/mL was 0% in assay [10]; 0% in assay [11]; 2.5% in assay [13]; 2.5% in assay [14]; 2.5% in assay [15]; 49.1% in assay [16]. The Survival in assay [12] amounted to 8.6 days.

As for `CCc1ccc(C(=O)NN(C(=O)c2cc(C)cc(C)c2)C(C)(C)C)cc1` [TEBUFENOZIDE], the mortality at 180 µg/mL in [3] was 0%; in assay [5] it was 0%; in assay [6] it was 0%; in assay [7], 0%; in assay [8], 58%; in assay [9], 18%. The Survival in assay [4] came out at 66.9 days.

Regarding `CC[C@H]1CCC[C@H](O[C@H]2CC[C@H](N(C)C)[C@@H](C)O2)[C@@H](C)C(=O)C2=C[C@@H]3[C@@H](C=C(C)[C@@H]4C[C@@H](O[C@@H]5O[C@@H](C)[C@H](OC)[C@@H](OC)[C@H]5OC)C[C@@H]34)[C@@H]2CC(=O)O1.CC[C@H]1CCC[C@H](O[C@H]2CC[C@H](N(C)C)[C@@H](C)O2)[C@@H](C)C(=O)C2=C[C@@H]3[C@@H](C=C[C@@H]4C[C@@H](O[C@@H]5O[C@@H](C)[C@H](OC)[C@@H](OC)[C@H]5OC)C[C@@H]34)[C@@H]2CC(=O)O1`, in assay [17], the mortality turned out to be 62%.
